One assay addresses Procathepsin L (Homo sapiens, UniProt P07711). Description: Inhibition of human liver cathepsin L after 5 mins by microplate reader analysis.
In another assay the target is Cathepsin B (Homo sapiens, UniProt P07858). The assay is described as follows: Inhibition of human liver cathepsin B after 5 mins by microplate reader analysis.
The subject of another assay is DU-145. Description: Cytotoxicity against human DU145 cells after 48 hrs by SRB assay. Format: functional. The settings on record: DU-145, 48 h.
For a further assay, the system named is NCI-H460. The assay is described as follows: Cytotoxicity against human NCI-H460 cells after 48 hrs by SRB assay. Format: functional. The settings on record: NCI-H460, 48 h.

Among the data in ChEMBL document CHEMBL1268983, “Functionalized benzophenone, thiophene, pyridine, and fluorene thiosemicarbazone derivatives as inhibitors of cathepsin L” (Bioorg Med Chem Lett, 2010) are IC50 and GI50 values, retold here.

Sequence of Procathepsin L (P07711 whole entry): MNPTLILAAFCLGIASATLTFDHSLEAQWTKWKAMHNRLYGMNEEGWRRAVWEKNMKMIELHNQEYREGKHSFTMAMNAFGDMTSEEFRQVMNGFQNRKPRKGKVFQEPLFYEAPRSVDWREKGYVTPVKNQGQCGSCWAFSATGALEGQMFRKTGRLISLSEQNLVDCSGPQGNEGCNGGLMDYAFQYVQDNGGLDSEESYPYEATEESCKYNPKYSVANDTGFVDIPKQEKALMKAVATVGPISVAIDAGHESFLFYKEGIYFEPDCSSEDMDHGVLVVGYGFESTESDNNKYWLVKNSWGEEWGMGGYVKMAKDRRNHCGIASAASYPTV

On to `NC(=S)NN=C1c2ccccc2-c2ccccc21`, for which the IC50 against Procathepsin L and on Cathepsin B was above 10 µM in each case.

For the compound `NC(=S)N/N=C(/c1ccccc1)c1cccnc1`, the IC50 on Procathepsin L and against Cathepsin B was above 10 µM in each case.

For the compound `NC(=S)N/N=C(/c1cccc(Br)c1)c1sccc1Br`, the IC50 against Procathepsin L is 0.37 µM; at Cathepsin B it was above 10 µM.

Turning to `NC(=S)N/N=C(/c1cccc(Br)c1)c1cccnc1Br`, the IC50 against Procathepsin L and against Cathepsin B was above 10 µM each time.

As for `CC(C)(C)[Si](C)(C)Oc1ccc(/C(=N\NC(N)=S)c2cccc(Br)c2)cc1Br`, the IC50 against Procathepsin L and on Cathepsin B was above 10 µM throughout.

In the case of `NC(=S)N/N=C(\c1cccnc1)c1cccc(Br)c1`, the IC50 at Procathepsin L was 1 µM; at Cathepsin B it was above 10 µM.

With `COc1ccc(/C(=N\NC(N)=S)c2cc(OC)c(OC)c(OC)c2)cc1O`, the values for the IC50 on Procathepsin L and on Cathepsin B were 3.6 µM and 1.42 µM, respectively.

`NC(=S)N/N=C(/c1ccccc1)c1cccc(O)c1`: the IC50 at Procathepsin L and against Cathepsin B was above 10 µM in each case.

For the compound `NC(=S)N/N=C(/c1cccc(Br)c1)c1cc(Br)cs1`, the IC50 against Procathepsin L was 0.814 µM; on Cathepsin B it was above 10 µM.

For `NC(=S)N/N=C(/c1cccc(Br)c1)c1cccc(Br)c1O`, the IC50 against Procathepsin L and at Cathepsin B was above 10 µM in each case.

Take `NC(=S)N/N=C(/c1cccc(Br)c1)c1cccc(OCc2ccccc2)c1`: the IC50 on Procathepsin L and on Cathepsin B was above 10 µM in each case.

As to `NC(=S)N/N=C(/c1cccc(Br)c1)c1cc(O)cc(Br)c1`, the IC50 was 0.232 µM on Procathepsin L and above 10 µM at Cathepsin B.

For the compound `NC(=S)N/N=C(/c1cccc(Br)c1)C1CCCCC1`, the IC50 against Procathepsin L and against Cathepsin B was above 10 µM throughout.

In the case of `CC(C)(C)[Si](C)(C)Oc1cc(Br)cc(/C(=N\NC(N)=S)c2cccc(Br)c2)c1`, the IC50 at Procathepsin L and against Cathepsin B was above 10 µM each time.

`NC(=S)N/N=C(/c1ccccc1)c1cccs1`: the half-maximal inhibitory concentration (IC50) against Procathepsin L and against Cathepsin B was above 10 µM each time.

With `NC(=S)N/N=C(\c1cccc(O)c1)c1cccc(Br)c1`, the concentration for half-maximal inhibition (IC50) was 0.131 µM on Procathepsin L and above 10 µM at Cathepsin B. The 50% growth inhibitory concentration (GI50) in the assay on DU-145 amounted to 21.6 µM; in the assay with NCI-H460, 23.3 µM.

Turning to `NC(=S)NN=C1c2cc(Br)ccc2-c2ccc(Br)cc21`, the IC50 against Procathepsin L and on Cathepsin B was above 10 µM throughout.

Take `CC(=O)Oc1cccc(/C(=N\NC(N)=S)c2cccc(Br)c2)c1`: the values for the IC50 on Procathepsin L and on Cathepsin B were 0.151 µM and 1.6 µM, respectively.

For the compound `NC(=S)NN=C(c1ccccc1)c1ccccc1` [BENZOPHENONE-THIOSEMICARBAZONE], the IC50 at Procathepsin L and on Cathepsin B was above 10 µM throughout.

`NC(=S)N/N=C(\Cc1ccccc1)c1ccccc1`: the 50% inhibitory concentration (IC50) against Procathepsin L is 5.41 µM; against Cathepsin B it was above 10 µM.

Regarding `NC(=S)N/N=C(/c1cccc(Br)c1)c1ccc2c(c1)CCCC2`, the IC50 against Procathepsin L was 9.65 µM; at Cathepsin B, above 10 µM.

For `NC(=S)N/N=C(/c1cccc(Br)c1)c1ccc(Br)s1`, the IC50 is 0.931 µM on Procathepsin L and above 10 µM on Cathepsin B.

As to `CC(C)(C)[Si](C)(C)Oc1cccc(/C(=N\NC(N)=S)c2cccc(Br)c2)c1`, the IC50 against Procathepsin L and on Cathepsin B was above 10 µM in each case.

For the compound `NC(=S)N/N=C(/c1cccc(Br)c1)c1ccc(O)c(Br)c1`, the results for the IC50 on Procathepsin L and against Cathepsin B were 0.126 µM and 9.49 µM, respectively.

In the case of `NC(=S)N/N=C(\c1ccc(Br)nc1)c1cccc(Br)c1`, the IC50 at Procathepsin L and at Cathepsin B was above 10 µM in each case.
